Data as given in a compilation of properties of binary mixtures (doi:10.1016/j.molliq.2019.01.093).

Assay: xn = mol fraction of the nth substance listed
Details: 298.1 K, 100 kPa

CC(=O)[O-].CC[n+]1ccn(C)c1 + CS(C)=O
Details	electrical conductivity [S/m]
x1 = 0.01	0.16
x1 = 0.029	0.48
x1 = 0.044	0.63
x1 = 0.055	0.73
x1 = 0.082	0.83
x1 = 0.165	1.04
x1 = 0.237	1.07
x1 = 0.313	1.01
x1 = 0.415	0.93
x1 = 0.513	0.81
x1 = 0.813	0.5
x1 = 1	0.38

CCOP(=O)([O-])OCC.CC[n+]1ccn(C)c1 + CS(C)=O
Details	electrical conductivity [S/m]
x1 = 0.006	0.1
x1 = 0.013	0.19
x1 = 0.04	0.48
x1 = 0.059	0.57
x1 = 0.074	0.62
x1 = 0.119	0.68
x1 = 0.169	0.64
x1 = 0.233	0.57
x1 = 0.32	0.5
x1 = 0.544	0.28

CC[n+]1ccn(C)c1.F[B-](F)(F)F + CS(C)=O
Details	electrical conductivity [S/m]
x1 = 0.01	0.25
x1 = 0.017	0.69
x1 = 0.021	0.67
x1 = 0.032	1.04
x1 = 0.051	1.24
x1 = 0.066	1.53
x1 = 0.097	1.68
x1 = 0.15	1.84
x1 = 0.286	1.67
x1 = 0.483	1.48
x1 = 0.782	1.13
x1 = 1	0.91
